Experimental data from patent US8993574B2, “Pyrrole antifungal agents” (F2G Ltd, priority 2008, dated 2015).
≈ marks a conversion by molar mass, not a printed value.

Columns and labels:
Assay type in all cases: cell-based
[1] = test system: Aspergillus fumigatus AF293; test: MIC, YAG medium; conditions: 24 h at 35° C, MIC banded into grades; for MIC: Aspergillus fumigatus, read-out: MIC grade, A. fumigatus
In short: (§1)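 Spores from 5-day Sabouraud agar cultures were suspended in YAG medium (1% glucose, 1% ammonium chloride, 0.5% yeast extract) at final inocula of 1−2×10^4 cfu/mL against doubling dilutions of compound (50-0.05 mg/L; 0.5-0.0005 mg/L on repeat). Plates were incubated 24 h at 35° C. MIC was the lowest concentration giving >70% growth inhibition by OD485 versus drug-free control.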

[2] = test system: Aspergillus niger; test: MIC, YAG medium; conditions: 24 h at 35° C, MIC banded into grades; for MIC: Aspergillus niger, read-out: MIC grade, A. niger
In short: as §1

[3] = test system: Aspergillus terreus AT49; test: MIC, YAG medium; conditions: 24 h at 35° C, MIC banded into grades; for MIC: Aspergillus terreus, read-out: MIC grade, A. terreus 49
In short: as §1

[4] = test system: Aspergillus flavus; test: MIC, YAG medium; conditions: 24 h at 35° C, MIC banded into grades; for MIC: Aspergillus flavus, 24 h, read-out: MIC grade, A. flavus
In short: as §1

[5] = test system: Aspergillus fumigatus AF210; test: MIC, YAG medium; conditions: 24 h at 35° C, MIC banded into grades; for MIC: Aspergillus fumigatus, read-out: MIC grade, A. fumigatus 210
In short: as §1

[6] = test system: Aspergillus terreus AT4; test: MIC, YAG medium; conditions: 24 h at 35° C, MIC banded into grades; for MIC: Aspergillus terreus, read-out: MIC grade, A. terreus
In short: as §1

[7] = test system: Candida parapsilosis; test: MIC, RPMI medium; conditions: 24-48 h at 35° C., >80% growth inhibition, banded into grades; for MIC: Lodderomyces parapsilosis
In short: (§2)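 MIC taken as lowest drug level inhibiting growth by >80% relative to drug-free wells, read as OD at 485 nm after 24-48 h at 35° C. Organisms at 1−2×10^4 cfu/mL in RPMI (2% glucose, 0.135 M MOPS, pH 7.0) exposed to doubling dilutions spanning 50-0.05 mg/L.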

[8] = test system: Candida albicans; test: MIC, RPMI medium; conditions: 24-48 h at 35° C., >80% growth inhibition, banded into grades; for MIC: Candida albicans
In short: as §2

[9] = test system: Candida glabrata; test: MIC, RPMI medium; conditions: 24-48 h at 35° C., >80% growth inhibition, banded into grades; for MIC: Nakaseomyces glabratus
In short: as §2

[10] = test system: Candida krusei; test: MIC, RPMI medium; conditions: 24-48 h at 35° C., >80% growth inhibition, banded into grades; for MIC: Pichia kudriavzevii
In short: as §2

[11] = test system: Aspergillus fumigatus AF293; test: MIC, RPMI medium; conditions: for MIC: Aspergillus fumigatus, AF293, MIC banded into grades, read-out: MIC grade, A. fumigatus
In short: as §2

[12] = test system: Aspergillus niger; test: MIC, RPMI medium; conditions: MIC banded into grades; for MIC: Aspergillus niger, read-out: MIC grade, A. niger
In short: as §2

[13] = test system: Aspergillus terreus AT49; test: MIC, RPMI medium; conditions: for MIC: Aspergillus terreus, AT49, MIC banded into grades, read-out: MIC grade, A. terreus 49
In short: as §2

[14] = test system: Aspergillus flavus; test: MIC, RPMI medium; conditions: MIC banded into grades; for MIC: Aspergillus flavus, read-out: MIC grade, A. flavus
In short: as §2

[15] = test system: Candida tropicalis; test: MIC, RPMI medium; conditions: 24-48 h at 35° C., >80% growth inhibition, banded into grades; for MIC: Candida tropicalis
In short: as §2

[16] = test system: Aspergillus fumigatus AF210; test: MIC, RPMI medium; conditions: for MIC: Aspergillus fumigatus, AF210, MIC banded into grades, read-out: MIC grade, A. fumigatus 210
In short: as §2

[17] = test system: Aspergillus terreus AT4; test: MIC, RPMI medium; conditions: for MIC: Aspergillus terreus, AT4, MIC banded into grades, read-out: MIC grade, A. terreus
In short: as §2

| Structure (SMILES) | MIC [1] | MIC [2] | MIC [3] | MIC [4] | MIC [5] | MIC [6] | MIC [7] | MIC [8] | MIC [9] | MIC [10] | MIC [11] | MIC [12] | MIC [13] | MIC [14] | MIC [15] | MIC [16] | MIC [17] | also measured |
| --- | --- | --- | --- | --- | --- | --- | --- | --- | --- | --- | --- | --- | --- | --- | --- | --- | --- | --- |
| Cc1cc(C)nc(N2CCN(c3ccc(NC(=O)C(=O)c4c(-c5cccs5)cc(C)n4C)cc3)CC2)c1 [Example 13, N-{4-[4-(4,6-Dimethyl-pyridin-2-yl)-piperazin-1-yl]-phenyl}-2-(1,5-dimethyl-3-thiophen-2-yl-1H-pyrrol-2-yl)-2-oxo-acetamide] | < 1 µg/mL | < 1 µg/mL | < 1 µg/mL | < 1 µg/mL | < 1 µg/mL | < 1 µg/mL | < 1 µg/mL | < 1 µg/mL | < 1 µg/mL | < 1 µg/mL | < 1 µg/mL | < 1 µg/mL | < 1 µg/mL | < 1 µg/mL | < 1 µg/mL | < 1 µg/mL | < 1 µg/mL | – |
| COCCn1ccc(-c2ccccc2)c1C(=O)C(=O)Nc1ccc(N2CCN(c3cc(C)cc(C)n3)CC2)cc1 [Example 47, N-{4-[4-(4,6-Dimethyl-pyridin-2-yl)-piperazin-1-yl]-phenyl}-2-[1-(2-methoxy-ethyl)-3-phenyl-1H-pyrrol-2-yl]-2-oxo-acetamide] | < 1 µg/mL | 1 to 10 µg/mL (≈ 1.86 to 18.6 µM) | < 1 µg/mL | < 1 µg/mL | < 1 µg/mL | 1 to 10 µg/mL (≈ 1.86 to 18.6 µM) | 1 to 10 µg/mL (≈ 1.86 to 18.6 µM) | 1 to 10 µg/mL (≈ 1.86 to 18.6 µM) | < 1 µg/mL | 1 to 10 µg/mL (≈ 1.86 to 18.6 µM) | 1 to 10 µg/mL (≈ 1.86 to 18.6 µM) | 1 to 10 µg/mL (≈ 1.86 to 18.6 µM) | 1 to 10 µg/mL (≈ 1.86 to 18.6 µM) | 1 to 10 µg/mL (≈ 1.86 to 18.6 µM) | 1 to 10 µg/mL (≈ 1.86 to 18.6 µM) | 1 to 10 µg/mL (≈ 1.86 to 18.6 µM) | 1 to 10 µg/mL (≈ 1.86 to 18.6 µM) | – |
| COC(=O)Cn1c(C)cc(-c2ccccc2)c1C(=O)C(=O)Nc1ccc(N2CCN(c3cc(C)cc(C)n3)CC2)cc1 [Example 52, (2-{4-[4-(4,6-Dimethyl-pyridin-2-yl)-piperazin-1-yl]-phenylaminooxalyl}-5-methyl-3-phenyl-pyrrol-1-yl)-acetic acid methyl ester] | – | – | – | – | – | – | – | – | – | – | – | – | – | – | – | – | – | MIC grade, A. fumigatus [1]: 3 (A grade of 3 represents an MIC of less than 1 mg/L); MIC grade, A. niger [2]: 3 (A grade of 3 represents an MIC of less than 1 mg/L); MIC grade, A. terreus 49 [3]: 3 (A grade of 3 represents an MIC of less than 1 mg/L); MIC grade, A. flavus [4]: 3 (A grade of 3 represents an MIC of less than 1 mg/L); MIC grade, A. fumigatus 210 [5]: 3 (A grade of 3 represents an MIC of less than 1 mg/L); MIC grade, A. terreus [6]: 3 (A grade of 3 represents an MIC of less than 1 mg/L); Candida MIC, C. parapsilosis [7]: 2 (A grade of 2 represents an MIC of from 1 to 10 mg/L); Candida MIC, C. albicans [8]: 2 (A grade of 2 represents an MIC of from 1 to 10 mg/L); Candida MIC, C. glabrata [9]: 3 (A grade of 3 represents an MIC of less than 1 mg/L); Candida MIC, C. krusei [10]: 3 (A grade of 3 represents an MIC of less than 1 mg/L); MIC grade, A. fumigatus ([11]; MIC banded into grades): 3 (A grade of 3 represents an MIC of less than 1 mg/L); MIC grade, A. niger [12]: 3 (A grade of 3 represents an MIC of less than 1 mg/L); MIC grade, A. terreus 49 ([13]; MIC banded into grades): 3 (A grade of 3 represents an MIC of less than 1 mg/L); MIC grade, A. flavus [14]: 2 (A grade of 2 represents an MIC of from 1 to 10 mg/L); Candida MIC, C. tropicalis [15]: 2 (A grade of 2 represents an MIC of from 1 to 10 mg/L); MIC grade, A. fumigatus 210 ([16]; MIC banded into grades): 3 (A grade of 3 represents an MIC of less than 1 mg/L); MIC grade, A. terreus ([17]; MIC banded into grades): 3 (A grade of 3 represents an MIC of less than 1 mg/L) |
| COCCn1ccc(-c2ccccc2Cl)c1C(=O)C(=O)Nc1ccc(N2CCN(c3cc(C)cc(C)n3)CC2)cc1 [Example 57, 2-[3-(2-Chloro-phenyl)-1-(2-methoxy-ethyl)-1H-pyrrol-2-yl]-N-{4-[4-(4,6-dimethyl-pyridin-2-yl)-piperazin-1-yl]-phenyl}-2-oxo-acetamide] | < 1 µg/mL | 1 to 10 µg/mL (≈ 1.75 to 17.5 µM) | < 1 µg/mL | 1 to 10 µg/mL (≈ 1.75 to 17.5 µM) | < 1 µg/mL | 1 to 10 µg/mL (≈ 1.75 to 17.5 µM) | 1 to 10 µg/mL (≈ 1.75 to 17.5 µM) | 1 to 10 µg/mL (≈ 1.75 to 17.5 µM) | < 1 µg/mL | < 1 µg/mL | 1 to 10 µg/mL (≈ 1.75 to 17.5 µM) | 1 to 10 µg/mL (≈ 1.75 to 17.5 µM) | 1 to 10 µg/mL (≈ 1.75 to 17.5 µM) | > 10 µg/mL | 1 to 10 µg/mL (≈ 1.75 to 17.5 µM) | 1 to 10 µg/mL (≈ 1.75 to 17.5 µM) | 1 to 10 µg/mL (≈ 1.75 to 17.5 µM) | – |
